Reference: patent US5942489A, “HGH-RH(1-29)NH2 analogues having antagonistic activity” (The Administrators of the Tulane Educational Fund, priority 1996, dated 1999)
Where a SMILES comes first, the peptide text is derived from it. Bridges are numbered along the chain shown (N, C = ends). [ ]: non-standard residue; d: D form. The star is where a group is joined. Phe(4-Cl) = N[C@@H](Cc1ccc(Cl)cc1)C(=O)O; 2Nal = N[C@@H](Cc1ccc2ccccc2c1)C(=O)O; Cit = NC(=O)NCCC[C@H](N)C(=O)O; Agmatine = N=C(N)NCCCCN*; Nle = CCCC[C@H](N)C(=O)O; Orn = NCCC[C@H](N)C(=O)O; Abu = CC[C@H](N)C(=O)O; PhAc = O=C(Cc1ccccc1)*

How the values were obtained:
[1] = molecular target: T1, rat pituitary GH-RH receptors (Rattus norvegicus, UniProt Q02644); test: GH-RH radioreceptor binding assay, competition with labelled [His1,Nle27]hGH-RH(1-32)NH2; details: rat anterior pituitary membrane homogenates; read-out: Ki values, K
T1 construct: from tissue; host or cells: anterior pituitary of male Sprague-Dawley rats, crude membranes
T1 sequence (Q02644 23-464): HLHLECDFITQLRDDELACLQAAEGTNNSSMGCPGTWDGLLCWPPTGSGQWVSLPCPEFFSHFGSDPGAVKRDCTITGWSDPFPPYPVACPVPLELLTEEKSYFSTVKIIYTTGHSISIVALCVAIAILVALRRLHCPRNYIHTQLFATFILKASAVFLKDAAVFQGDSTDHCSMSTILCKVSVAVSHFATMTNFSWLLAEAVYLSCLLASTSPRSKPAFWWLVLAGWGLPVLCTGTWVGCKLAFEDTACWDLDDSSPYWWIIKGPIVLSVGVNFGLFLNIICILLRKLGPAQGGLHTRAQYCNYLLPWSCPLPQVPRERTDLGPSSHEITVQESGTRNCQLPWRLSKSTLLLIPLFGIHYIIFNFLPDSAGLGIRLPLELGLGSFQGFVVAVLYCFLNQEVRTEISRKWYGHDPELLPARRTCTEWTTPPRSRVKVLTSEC
Experimental: GH-RH Binding Assay. A sensitive radioreceptor binding assay was developed to determine the binding characteristics of the antagonists of GH-RH (G. Halmos, A. V. Schally et al., Receptor 3, 87-97, 1993), hereby incorporated by reference. The assay is based on binding of labelled [His^1, Nle^27 ]hGH-RH(1-32)NH2 to rat anterior pituitary membrane homogenates. Iodinated derivatives of [His^1, Nle^27 ]hGH-RH(1-32)NH2 are prepared by the chloramine-T method (F. C. Greenwood et al., Biochemistry 89:114-123, 1963), hereby incorporated by reference. Pituitaries from male Sprague-Dawley rats (250-300 g) are used to prepare crude membranes. For saturation binding analyses, membrane homogenates are incubated with at least 6 concentrations of [His^1,125I-Tyr^10,Nle^27 ]hGH-RH(1-32)NH2, ranging from 0.005 to 0.35 nM in the presence or absence of excess unlabelled peptide (1 μM).
The pellet is counted for radioactivity in a γ-counter. The affinities of the antagonist peptides tested to rat pituitary GH-RH receptors are determined in competitive binding experiments. The final binding affinities are estimated by Ki (dissociation constant of the inhibitor-receptor complex) and are determined by the Ligand PC computer program of Munson and Rodbard as modified by McPherson. Relative affinities compared to [Ac-Tyr^1, D-Arg^2 ]hGH-RH(1-29)NH2, the Standard antagonist, are calculated as the ratio of Ki of the tested GH-RH antagonist to the Ki of the Standard antagonist.

[2] = system: GH release induced by 1 nM hGH-RH(1-29)NH2 in superfused rat pituitary cells; test: Inhibition of hGH-RH(1-29)NH2-induced GH release in superfused rat pituitary system; format: cell-based; details: 30 nM peptide; for Inhibition of GH release (%) 0 min: 0 min response; for Inhibition of GH release (%) 30 min: 30 min response; for Inhibition of GH release (%) 60 min: 60 min response; for Inhibition of GH release (%) 90 min: 90 min response; for Inhibition of GH release (%) 120 min: 120 min response
Experimental: Superfused Rat Pituitary System. The analogues were tested in vitro in a test described earlier (S. Vigh and A. V. Schally, Peptides 5:241-[…], 1984) with modification (Z. Rekasi and A. V. Schally, P. N. A. S. 90:2146-2149, 1993).
Briefly, the cells are preincubated with peptides for 9 minutes (3 mL) at various concentrations. Immediately after the incubation, 1 nM hGH-RH(1-29)NH2 is administered for 3 minutes (1 mL) [0 minute response]. To check the duration of the antagonistic effect of the analogue, 1 nM hGH-RH(1-29)NH2 is applied 30, 60, 90, and 120 minutes later for 3 minutes [30, 60, 90, 120 min responses]. Net integral values of the GH responses are evaluated. GH responses are compared to and expressed as percent of the original GH response induced by 1 nM GH-RH(1-29)NH2. The effect of the new antagonists are compared to that of [Ac-Tyr^1,D-Arg^2 ]hGH-RH(1-29)NH2, the "Standard antagonist".
Growth Hormone Radio-immunoassay. Rat GH levels in aliquots of undiluted and diluted superfusion samples were measured by double-antibody radioimmunoassay using materials supplied by the National Hormone and Pituitary Program, Baltimore, Md. The results of RIA were analyzed with a computer program developed in our institute (V. Csernus and A. V. Schally, Harwood Academic (Greenstein, B. C. ed., London, pp. 71-109, 1991), hereby incorporated by reference. Inter-assay variation was less than 15% and intra-assay variation was less than 10%.

| Ki [1] [nM] | Compound | Inhibition of GH release (%) 0 min [2] [%] | Inhibition of GH release (%) 30 min [2] [%] | Inhibition of GH release (%) 60 min [2] [%] | Inhibition of GH release (%) 90 min [2] [%] | Inhibition of GH release (%) 120 min [2] [%] |
| --- | --- | --- | --- | --- | --- | --- |
| 0.059 ± 0.001 | CCCC[C@H](NC(=O)[C@@H](NC(=O)[C@H](CC(=O)O)NC(=O)[C@H](CCC(N)=O)NC(=O)[C@H](CC(C)C)NC(=O)[C@H](CC(C)C)NC(=O)[C@H](CCCCN)NC(=O)[C@H](CCCNC(=N)N)NC(=O)[C@H](C)NC(=O)[C@H](CO)NC(=O)[C@H](CC(C)C)NC(=O)[C@H](CCC(N)=O)NC(=O)[C@H](C)NC(=O)[C@H](CC(C)C)NC(=O)[C@@H](NC(=O)[C@H](CCCCN)NC(=O)[C@H](CCCNC(=N)N)NC(=O)[C@H](Cc1ccc(O)cc1)NC(=O)[C@H](CO)NC(=O)[C@H](CC)NC(=O)[C@@H](NC(=O)[C@H](Cc1ccc(Cl)cc1)NC(=O)[C@@H](NC(=O)[C@H](C)NC(=O)[C@H](CC(=O)O)NC(=O)[C@@H](CCCNC(=N)N)NC(=O)[C@H](Cc1ccc(O)cc1)NC(=O)Cc1ccccc1)[C@@H](C)CC)[C@@H](C)O)C(C)C)[C@@H](C)CC)C(=O)N[C@@H](CO)C(=O)N[C@@H](CCCNC(=N)N)C(N)=O [Peptide 11, [PhAc^0,D-Arg^2,Phe(pCl)^6,Abu^8,Ala^15,Nle^27],hGH-RH(1-29)NH2] (PhAc-Y[dR]DAI[Phe(4-Cl)]T[Abu]SYRKVLAQLSARKLLQDI[Nle]SR-NH2) | – | – | – | – | – |
| 0.0159 ± 0.01 | CCCC[C@H](NC(=O)[C@@H](NC(=O)[C@H](CC(=O)O)NC(=O)[C@H](CCC(N)=O)NC(=O)[C@H](CC(C)C)NC(=O)[C@H](CC(C)C)NC(=O)[C@H](CCCCN)NC(=O)[C@H](CCCNC(=N)N)NC(=O)[C@H](C)NC(=O)[C@H](CO)NC(=O)[C@H](CC(C)C)NC(=O)[C@H](CCC(N)=O)NC(=O)[C@H](CC)NC(=O)[C@H](CC(C)C)NC(=O)[C@@H](NC(=O)[C@H](CCCCN)NC(=O)[C@H](CCCNC(=N)N)NC(=O)[C@H](Cc1ccc(O)cc1)NC(=O)[C@H](CO)NC(=O)[C@H](CC(N)=O)NC(=O)[C@@H](NC(=O)[C@H](Cc1ccc(Cl)cc1)NC(=O)[C@@H](NC(=O)[C@H](C)NC(=O)[C@H](CC(=O)O)NC(=O)[C@@H](CCCNC(=N)N)NC(=O)[C@H](Cc1ccc(O)cc1)NC(=O)Cc1ccccc1)[C@@H](C)CC)[C@@H](C)O)C(C)C)[C@@H](C)CC)C(=O)N[C@@H](CO)C(=O)NCCCCNC(=N)N [Peptide 8, [PhAc^0,D-Arg^2,Phe(pCl)^6,Abu^15,Nle^27]hGH-RH(1-28)Agm] (PhAc-Y[dR]DAI[Phe(4-Cl)]TNSYRKVL[Abu]QLSARKLLQDI[Nle]S-Agmatine) | – | – | – | – | – |

The next lines start with the compound.

| Compound | Ki [1] [nM] | Inhibition of GH release (%) 0 min [2] [%] | Inhibition of GH release (%) 30 min [2] [%] | Inhibition of GH release (%) 60 min [2] [%] | Inhibition of GH release (%) 90 min [2] [%] | Inhibition of GH release (%) 120 min [2] [%] |
| --- | --- | --- | --- | --- | --- | --- |
| CCCC[C@H](NC(=O)[C@@H](NC(=O)[C@H](CC(=O)O)NC(=O)[C@H](CCC(N)=O)NC(=O)[C@H](CC(C)C)NC(=O)[C@H](CC(C)C)NC(=O)[C@H](CCCCN)NC(=O)[C@H](CCCNC(=N)N)NC(=O)[C@H](C)NC(=O)[C@H](CO)NC(=O)[C@H](CC(C)C)NC(=O)[C@H](CCC(N)=O)NC(=O)[C@H](CC)NC(=O)[C@H](CC(C)C)NC(=O)[C@@H](NC(=O)[C@H](CCCCN)NC(=O)[C@H](CCCNC(=N)N)NC(=O)[C@H](Cc1ccc(O)cc1)NC(=O)[C@H](CO)NC(=O)[C@H](CC)NC(=O)[C@@H](NC(=O)[C@H](Cc1ccc(Cl)cc1)NC(=O)[C@@H](NC(=O)[C@H](C)NC(=O)[C@H](CC(=O)O)NC(=O)[C@@H](CCCNC(=N)N)NC(=O)[C@H](Cc1ccc(O)cc1)NC(=O)Cc1ccccc1)[C@@H](C)CC)[C@@H](C)O)C(C)C)[C@@H](C)CC)C(=O)N[C@@H](CO)C(=O)N[C@@H](CCCNC(N)=O)C(N)=O [Peptide 3, [PhAc^0,D-Arg^2,Phe(pCl)^6,Abu^8,15,Nle^27,Cit^29]hGH-RH(1-29)-NH2] (PhAc-Y[dR]DAI[Phe(4-Cl)]T[Abu]SYRKVL[Abu]QLSARKLLQDI[Nle]S[Cit]-NH2) | 0.301 ± 0.14 | – | – | – | – | – |
| [PhAc^0,Tyr(Me),D-Arg^2,Phe(pCl)^6,Ala^15,Nle^27 ]hGH-RH(1-29)-NH2 [Peptide 10] | – | 84.8 | 35.2 | 38.2 | 29.8 | 33.8 |
| CCCC[C@@H]1NC(=O)[C@H]([C@@H](C)CC)NC(=O)[C@H](NC(=O)[C@H](CCC(N)=O)NC(=O)[C@H](CC(C)C)NC(=O)[C@H](CC(C)C)NC(=O)[C@H](CCCCN)NC(=O)[C@H](CCCNC(=N)N)NC(=O)[C@H](C)NC(=O)[C@H](CO)NC(=O)[C@H](CC(C)C)NC(=O)[C@H](CCC(N)=O)NC(=O)[C@H](C)NC(=O)[C@H](CC(C)C)NC(=O)[C@@H](NC(=O)[C@H](CCCCN)NC(=O)[C@H](CCCNC(=N)N)NC(=O)[C@H](Cc2ccc(O)cc2)NC(=O)[C@H](CO)NC(=O)[C@H](CC)NC(=O)[C@@H](NC(=O)[C@H](Cc2ccc3ccccc3c2)NC(=O)[C@@H](NC(=O)[C@H](C)NC(=O)[C@H](CC(=O)O)NC(=O)[C@@H](CCCNC(=N)N)NC(=O)[C@H](Cc2ccc(O)cc2)NC(=O)Cc2ccccc2)[C@@H](C)CC)[C@@H](C)O)C(C)C)CC(=O)NCCC[C@@H](C(N)=O)NC(=O)[C@H](CO)NC1=O [Peptide 20, cyclo^25,29 [PhAc^0,D-Arg^2,Nal^6,Abu^8,Ala^15,D-Asp^25,Nle^27,Orn^29]hGH-RH(1-29)NH2] (PhAc-Y[dR]DAI[2Nal]T[Abu]SYRKVLAQLSARKLLQ[dD]I[Nle]S[Orn]-NH2; lactam 25-29) | – | 11.0 | 0.0 | 0.0 | 13.0 | – |
| CCCC[C@H](NC(=O)[C@@H](NC(=O)[C@H](CC(=O)O)NC(=O)[C@H](CCC(N)=O)NC(=O)[C@H](CC(C)C)NC(=O)[C@H](CC(C)C)NC(=O)[C@H](CCCCN)NC(=O)[C@H](CCCNC(=N)N)NC(=O)[C@H](C)NC(=O)[C@H](CO)NC(=O)[C@H](CC(C)C)NC(=O)[C@H](CCC(N)=O)NC(=O)[C@H](C)NC(=O)[C@H](CC(C)C)NC(=O)[C@@H](NC(=O)[C@H](CCCCN)NC(=O)[C@H](CCCNC(=N)N)NC(=O)[C@H](Cc1ccc(O)cc1)NC(=O)[C@H](CO)NC(=O)[C@H](CC)NC(=O)[C@@H](NC(=O)[C@H](Cc1ccc2ccccc2c1)NC(=O)[C@@H](NC(=O)[C@H](C)NC(=O)[C@H](CC(=O)O)NC(=O)[C@@H](CCCNC(=N)N)NC(=O)[C@H](Cc1ccc(O)cc1)NC(=O)Cc1ccccc1)[C@@H](C)CC)[C@@H](C)O)C(C)C)[C@@H](C)CC)C(=O)N[C@@H](CC)C(=O)N[C@@H](CCCNC(=N)N)C(N)=O [Peptide 12, [PhAc^0,D-Arg^2,Nal^6,Abu^8,28,Ala^15,Nle^27]hGH-RH(1-29)NH2] (PhAc-Y[dR]DAI[2Nal]T[Abu]SYRKVLAQLSARKLLQDI[Nle][Abu]R-NH2) | – | 87.0 | 61.0 | 37.0 | 34.0 | 41.0 |
